# According to patent publication US10172905B1, “Treatment of protein degradation disorders” (President and Fellows of Harvard College, priority 2005, dated 2019):
# Read-outs that look alike come from different tables or passages of the source. Non-standard residues stand in square brackets, D forms with d. Residues, ends and D or L forms follow the SMILES beside them. Aoe = N[C@@H](CCCCCC(=O)[C@@H]1CO1)C(=O)O
# Key:
# MM.1S and RPMI cells = experiment: Synergy with Velcade/Bortezomib in myeloma cell lines; type: cell-based
# [1] = test system: tubulin acetylation versus lysine acetylation; experiment: Immunofluorescence assay for acetylated tubulin versus acetylated lysine; type: cell-based; conditions: cells not given
# From the text: The present invention provides an immunofluorescence-based assay for identifying test agents with HDAC and/or TDAC inhibitory activity. The inventive assay is based on the use of specific antibodies for acetylated tubulin and acetylated lysine (i.e., a marker for acetylated histones). […] As described above, any type of agent, including small molecules, polymers, biomolecules, proteins, peptides, polynucleotides, etc., may be screened using the inventive assay. In certain embodiments, small molecules are screened. In certain particular embodiments, the small molecules are tubacin-like or are tubacin derivatives. In certain embodiments, the small molecules are compounds of the present invention. The test agents may also be small molecules purchased, prepared through traditional synthetic techniques, prepared through combinatorial chemistry techniques, or obtained from historical chemical collections. In certain embodiments, the test agents are biomolecules. In other embodiments, the test agents are proteins or peptides. In yet other embodiments, the test agents are polynucleotides. In certain embodiments, the test agents are polymers.
# The assay involves contacting cells with a specific concentration of the test agent under specific conditions. […] There particular parameters may be determined by the operator or scientist conducting the assay as would be appreciated by one of skill in this art. After a determined time of incubation with the test compound, the cells are treated with a first primary antibody directed against acetylated tubulin and a second primary antibody directed against acetylated lysine. […] The signal from each of the secondary antibodies is measured and optionally quantitated to determine the amount of TDAC and HDAC inhibition under the specified conditions with the test agent. Optionally, the extent of inhibition is determined relative to a control in which no test agent was added. In certain embodiments, the secondary antibody is left out and the primary antibodies are uniquely labeled for identification and optionally quantification. […]
# HDAC6 [2] = molecular target: T1, HDAC6 (Homo sapiens, UniProt Q9UBN7); conditions: stated property of control compound; cited from earlier work
# T1 sequence (Q9UBN7 1-1215): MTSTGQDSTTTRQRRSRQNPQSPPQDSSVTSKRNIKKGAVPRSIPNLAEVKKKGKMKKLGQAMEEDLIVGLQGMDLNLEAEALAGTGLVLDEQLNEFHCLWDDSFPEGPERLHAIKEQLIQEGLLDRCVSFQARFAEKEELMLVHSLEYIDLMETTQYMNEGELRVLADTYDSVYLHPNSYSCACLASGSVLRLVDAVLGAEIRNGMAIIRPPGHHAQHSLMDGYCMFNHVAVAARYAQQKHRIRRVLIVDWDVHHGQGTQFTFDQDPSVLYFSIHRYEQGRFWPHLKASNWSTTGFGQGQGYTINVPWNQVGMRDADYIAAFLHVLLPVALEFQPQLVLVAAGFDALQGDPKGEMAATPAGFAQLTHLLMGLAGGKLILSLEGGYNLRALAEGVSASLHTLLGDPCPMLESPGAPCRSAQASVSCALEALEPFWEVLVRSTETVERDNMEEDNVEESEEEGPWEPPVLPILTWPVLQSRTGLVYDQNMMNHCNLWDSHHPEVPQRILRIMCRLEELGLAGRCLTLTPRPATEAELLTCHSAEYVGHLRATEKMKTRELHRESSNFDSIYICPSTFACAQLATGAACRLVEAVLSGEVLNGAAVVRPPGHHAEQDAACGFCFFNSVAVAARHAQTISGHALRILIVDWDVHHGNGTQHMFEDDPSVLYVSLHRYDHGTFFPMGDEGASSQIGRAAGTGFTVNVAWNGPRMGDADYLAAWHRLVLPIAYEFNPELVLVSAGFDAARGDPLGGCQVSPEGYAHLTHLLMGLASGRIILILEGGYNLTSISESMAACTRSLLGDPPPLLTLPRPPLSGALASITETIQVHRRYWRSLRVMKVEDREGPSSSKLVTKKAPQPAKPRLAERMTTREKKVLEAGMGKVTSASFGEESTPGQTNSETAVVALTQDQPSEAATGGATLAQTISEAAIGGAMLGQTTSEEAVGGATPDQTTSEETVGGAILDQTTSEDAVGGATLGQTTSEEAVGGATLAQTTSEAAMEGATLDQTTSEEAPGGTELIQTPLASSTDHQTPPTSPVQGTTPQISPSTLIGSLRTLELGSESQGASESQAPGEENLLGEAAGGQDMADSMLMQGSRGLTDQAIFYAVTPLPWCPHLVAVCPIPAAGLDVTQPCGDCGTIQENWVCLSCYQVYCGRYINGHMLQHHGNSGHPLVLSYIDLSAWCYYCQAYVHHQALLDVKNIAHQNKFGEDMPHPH
# MM.1S cells [3] = experiment: Cell cycle profile by flow cytometry (PI staining); type: cell-based, human; conditions: bortezomib 5 nM alone, 24 h; increased from 14.2%
# Experimental: […] Cells were then stained with propidium iodine (PI, Sigma) (5 μg/ml) and cell cycle profile was determined using program M software on an Epics flow cytometer (Coulter Immunology, Hialeah, Fla.) (44).
# [4] = test system: JNK phosphorylation and caspase/PARP cleavage; experiment: Western blotting for p21Cip1, p-JNK, caspases and PARP; type: cell-based, human; conditions: MM.1S cells, tubacin 5 μM and/or bortezomib 5 nM, 24 h
# Experimental: (§1) MM cells were cultured with Velcade and/or Tubacin; harvested; washed; and lysed using lysis buffer: 50 mM Tris-HCl (pH 7.4), 150 mM NaCl, 1% NP-40, 5 mM EDTA, 5 mM NaF, 2 mM Na3VO4, 1 mM PMSF, 5 μg/ml leupeptine, and 5 μg/ml aprotinin. Cell lysates were subjected to SDS-PAGE, transferred to PVDF membrane (Bio-Rad Laboratories, Hercules, Calif.), and immunoblotted with Abs against specific proteins.
# (§2) Cells cultured with tubacin and/or bortezomib were harvested; washed, and lysed using lysis buffer: 50 mM Tris-HCl (pH 7.4), 150 mM NaCl, 1% NP-40, 5 mM EDTA, 5 mM NaF, 1 mM Na3VO4, 1 mM PMSF, 5 μg/ml leupeptine, and 5 μg/ml aprotinin. Whole cell lysates were subjected to SDS-PAGE, transferred to nitrocellulose membrane (Bio-Rad Laboratories, Hercules, Calif.), and immunoblotted with specific Abs (31). Western blotting was done using anti-HDAC6, acetylated lysine, acetylated histone H3, acetylated histone H4, ubiquitin (Ub), phospho-SAPK (JNK), caspase-8 caspase-9, caspase-3, and PARP Abs (Cell Signaling, Beverly, Mass.); with anti-α-tubulin Ab (Santa Cruz Biotechnology, Santa Cruz, Calif.); as well as with anti-dynein Ab (Sigma, Saint Louis, Mo.). For immunoprecipitation, whole cell lysates were incubated with anti-Ub or dynein Abs overnight at 4° C., and then incubated with protein A/G PLUS-Agarose (Santa Cruz Biotechnology) for 2 h at 4° C., as in our prior study (31). Immunoprecipitates were then subjected to Western blotting for detection of HDAC6 and dynein.
# MM.1S and RPMI8226 cells = experiment: [3H]-thymidine uptake of MM cells adherent to BMSCs; type: cell-based, human; conditions: MM cells adherent to BMSCs, 24 h
# Experimental: […] DNA synthesis was measured as described above.
# After treatment, DNA synthesis was measured by [^3H]-thymidine (Perkin Elmer, Boston Mass.) uptake, as previously described (44). All experiments were performed in quadruplicate.
# [5] = test system: MM.1S cells and RPMI cells; experiment: Inhibition of protein catabolism in myeloma cells; type: cell-based; conditions: FIG. 18
# RPMI8226 cells = conditions: 24 h
# Experimental: The inhibitory effect of bortezomib and/or tubacin on MM cell growth was assessed by measuring 3-(4,5-dimethylthiazol-2-yl)-2,5-diphenyl tetrazolium bromide (MTT) dye absorbance, as described previously (33). Cells from 48 h cultures were pulsed with 10 μl of 5 mg/ml MTT to each well for the last 4 h of 48 h cultures, followed by 100 μl isopropanol containing 0.04N HCl. Absorbance was measured at 570 nm using a spectrophotometer (Molecular Devices Corp., Sunnyvale Calif.). All experiments were performed in quadruplicate.
# [6] = test system: patients with refractory relapsed MM; conditions: 202 patients; cited from earlier work
# MM.1S cells [7] = experiment: MTT assay with niltubacin or HDAC6 siRNA, with or without bortezomib; type: cell-based, human; conditions: niltubacin 2.5 and 5 μM, 5 nM bortezomib
# Experimental: The inhibitory effect of bortezomib and/or tubacin on MM cell growth was assessed by measuring 3-(4,5-dimethylthiazol-2-yl)-2,5-diphenyl tetrazolium bromide (MTT) dye absorbance, as described previously (33). […] All experiments were performed in quadruplicate.
# MM.1S cells were transiently transfected with HDAC6 siRNA (Dharmacon Inc., Lafayette, Colo.) using “Cell Line Nucleofecto™ Kit V,” according to manufacturer's (Amaxa Biosystems, Gaithersburg, Md.) instructions (33). Following transfection, MM.1S cells were subjected to Western blotting and MTT assay, in the presence or absence of bortezomib.
# HDAC6 [8] = molecular target: T1, HDAC6; experiment: Western blotting with anti-acetylated lysine / HDAC6 Abs; type: cell-based; set-up: MM.1S, U266, INA-6, RPMI8226, and RPMI-LR5 MM cell lines constitutively express HDAC6; endogenous in cells; host or cells: MM.1S, RPMI8226 and other MM cell lines; MM patient BMPCs/PBMCs; conditions: niltubacin 2.5 and 5 μM, 24 h, MM.1S cells
# Experimental: as §1, §2
compound,measurement,setting,value
"O=C(CCCCCCC(=O)Nc1ccc(C2OC(CSc3nc(-c4ccccc4)c(-c4ccccc4)o3)CC(c3ccccc3)O2)cc1)NO (centres unmarked) [DHM-Tubacin, des(hydromethyl)-Tubacin]",synergy with Velcade,MM.1S and RPMI cells; MM.1S and RPMI cells,synergy
same,specificity for tubulin acetylation versus lysine acetylation,[1],specificity
"Cc1[nH]c2ccccc2c1CCNCc1ccc(/C=C/C(=O)NO)cc1 [LBH589, reference compound]",toxicity and synergy with Bortezomib,MM.1S and RPMI cells; MM.1S cells,toxicity and synergy
same,toxicity and synergy with Bortezomib,MM.1S and RPMI cells; RPMI-8226 cells,toxicity and synergy
CC(/C=C/C(=O)NO)=C\[C@@H](C)C(=O)c1ccc(N(C)C)cc1 [Trichostatin],inhibition of HDAC6,HDAC6 [2],potent inhibitor of both HDAC6 domains
CC(C)C[C@H](NC(=O)[C@H](Cc1ccccc1)NC(=O)c1cnccn1)B(O)O [bortezomib],G2M phase MM.1S cells,MM.1S cells [3],39.5%
same,phosphorylation of JNK and caspase/PARP cleavage,[4],"induces only modest phosphorylation of JNK as well as caspase-9, -8, -3 and PARP cleavage"
same,"BMSC-induced [3H]-thymidine uptake / MM cell growth with BMSCs, single agent",MM.1S and RPMI8226 cells,inhibits BMSC-induced [^3H]-thymidine uptake in a dose-dependent fashion
same,inhibition of protein catabolism,[5],potent inhibitors of protein catabolism
same,RPMI8226 cell death,RPMI8226 cells; 5 nM bortezomib alone,26%
same,RPMI8226 cell death,RPMI8226 cells; 10 nM bortezomib alone,66%
same,complete and near complete responses,[6],10%
same,patients who did not respond,[6],65%
same,responses,[6],35%
"O=C(O)CCCCCCC(=O)Nc1ccc([C@H]2O[C@@H](CSc3nc(-c4ccccc4)c(-c4ccccc4)o3)C[C@@H](c3ccc(CO)cc3)O2)cc1 [niltubacin, reference compound]",enhancement of cytotoxicity induced by bortezomib,MM.1S cells [7],does not affect either acetylation of α-tubulin (FIG. 4F) or enhance cytotoxicity
same,acetylation of α-tubulin,HDAC6 [8],does not affect
O=C1N[C@@H](Cc2ccccc2)C(=O)N2CCC[C@@H]2C(=O)N[C@@H](CCCCCC(=O)[C@@H]2CO2)C(=O)N[C@H]1Cc1ccccc1 [trapoxin] (cyclo(FF[dP][Aoe])),inhibition of HDAC6,HDAC6 [2],does not inhibit HDAC6
